Data on 5 molecules can be found in patent publication US20250302799A1, “PHARMACEUTICAL COMPOSITION CONTAINING FRAXETIN FOR PREVENTION OR TREATMENT OF ENDOMETRIOSIS” (Research & Business Foundation Sungkyunkwan University, priority 2024, published 2025).

Common to all, as to type: cell-based, human
In data set [1] the test system is End1/E6E7 cells. Put plainly: ROS generation by DCFH-DA flow cytometry. The procedure: (§1) To assess the inhibitory effect of fraxetin on ROS generation in endometrial cells, the inventors used flow cytometry to measure ROS levels. In brief, endometriosis cells were stained with DCFH-DA (final concentration 10 μM) for 30 minutes and treated with 50 μM fraxetin in experimental groups, with or without 2 mM N-acetylcysteine (NAC; Cat No. A0737, Sigma), in a 37° C. incubator. Afterward, the cells were washed with PBS, and ROS levels were detected by measuring fluorescence DCF via flow cytometry.
Background: In flow cytometry, cells or beads pass a laser one at a time.

Data set [2] relates to VK2/E6E7 cells. Briefly: ROS generation by DCFH-DA flow cytometry. As to the method: as §1
In data set [3] the test system is End1/E6E7 cells. Put plainly: Western blot analysis of protein expression and phosphorylation. As to the method:
To analyze protein expression related to the development of endometriosis following fraxetin treatment, the inventors conducted western blot analysis.
Briefly, endometrial cells were treated with fraxetin in a dose-dependent manner or in combination with signaling pathway inhibitors. Total proteins were extracted from the treated cells, and protein quantification was performed using the Bradford protein assay (Bio-Rad, Hercules, CA, USA). The extracted proteins were then denatured at 95° C. for 5 minutes and subjected to electrophoresis on a 10% SDS/PAGE gel before being transferred to a nitrocellulose membrane. The membrane was subsequently incubated with primary and secondary antibodies, and target protein expression was analyzed using chemiluminescence detection reagents (Supersignal West Pico, Pierce, Rockford, IL, USA) with the ChemiDoc EQ system and Quantity One software (Bio-Rad).
(In general: A western blot detects proteins with antibodies after separation by electrophoresis.)

The subject of data set [4] is End1/E6E7 cells. Briefly: Cell viability with signaling pathway inhibitors alone or combined with fraxetin. To be noted: wortmannin 1 μM, U0126 20 μM. As to the method: (§2) The AKT inhibitor wortmannin (1 μM), ERK1/2 inhibitor U0126 (20 μM), and JNK inhibitor SP600125 (20 μM) were used.
For data set [5], the system named is VK2/E6E7 cells. The description is as above. To be noted: wortmannin 1 μM, U0126 20 μM. The procedure: as §2
In data set [6] the test system is End1/E6E7 cells. Briefly: BrdU cell proliferation assay. To be noted: End1/E6E7, 48 hours. As to the method: (§3) To examine the effects of fraxetin on cell proliferation, the inventors performed a BrdU cell proliferation assay.
(§4) First, 5×10^3 cells of VK2/E6E7, End1/E6E7, and T-HESC were each distributed in 100 μL of medium in 96-well plates.
(§5) Fraxetin was then administered in a dose-dependent manner (0μM, 5 μM, 10 μM, 20 uM, 50 μM, 100 uM) and cultured for 48 hours, followed by the BrdU assay using a BrdU kit (Cat No: 1167229001, Roche) according to the manufacturer's instructions.
(§6) After 48 hours of incubation, 10 μM BrdU (Bromodeoxyuridine) was added to each well and incubated at 37° C. in a 5% CO2 incubator for 2 hours. The cells were then fixed, reacted with anti-BrdU-POD solution at room temperature for 90 minutes, and washed three times. Finally, 100 μL of 3, 3′, 5, 5′-tetramethylbenzidine substrate was added, and absorbance was measured at wavelengths of 370 nm and 492 nm to analyze cell proliferation.

In data set [7] the test system is VK2/E6E7 cells. Put plainly: BrdU cell proliferation assay. Particulars: VK2/E6E7, 48 hours. As to the method: as §3, §4, §5, §6
For data set [8], the system named is End1/E6E7 cells. Briefly: Mitochondrial membrane potential by JC-1 staining. Particulars: End1/E6E7, with tiRNA^HisGTG inhibitor. The procedure: To examine changes in mitochondrial membrane potential (MMP) in endometrial cells induced by fraxetin, the inventors used a mitochondria staining kit (Cat no: CS0390, Sigma-Aldrich) to measure MMP.
In brief, End1/E6E7 and […] endometrial cell lines were cultured in 6-well plates, treated with fraxetin in a dose-dependent manner (0 μM, 5 μM, 10 μM, 20 μM, 50 μM, 100 μM), and incubated at 37° C. in a 5% CO2 incubator for 48 hours. Afterward, the cells were detached using trypsin, centrifuged to obtain cell pellets, resuspended in JC-1 staining solution, and incubated at 37° C. in a 5% CO2 incubator for 20 minutes. The stained cells were centrifuged again, washed with 1X JC-1 staining buffer, and analyzed using flow cytometry to assess changes in mitochondrial membrane potential.

In data set [9] the test system is VK2/E6E7 cells. Put plainly: Mitochondrial membrane potential by JC-1 staining. To be noted: VK2/E6E7, with tiRNA^HisGTG inhibitor.
For data set [10], the system named is End1/E6E7 cells. Put plainly: Apoptosis by Annexin V and propidium iodide staining. Particulars: End1/E6E7, with tiRNA^HisGTG inhibitor. As to the method: (§7) To assess the apoptosis-inducing effect of fraxetin in endometrial cells, the inventors used a FITC Annexin V Apoptosis Detection Kit I (BD Sciences).
(§8) First, VK2/E6E7 and End1/E6E7 cells were cultured in 6-well plates, treated with fraxetin in a dose-dependent manner (0 μM, […], 10 μM, 20 µM, 50 μM, 100 μM), and incubated for 48 hours at 37° C. in a 5% CO2 incubator. The cells were then detached using trypsin, washed with PBS, and mixed slowly with 1 mL of 1X binding buffer. After centrifugation, the cell pellet was resuspended in 200 μL of 1X binding buffer. The suspension (100 μL) was transferred to a 1.5 mL brown tube, and 5 μL of Annexin V and PI (propidium iodide) were added, followed by staining at room temperature for 15 minutes. After adding 400 μL of 1X binding buffer, the stained solution was transferred to a 5 mL FACS tube, and the number of apoptotic cells was measured by analyzing fluorescence intensity using flow cytometry.

For data set [11], the system named is VK2/E6E7 cells. Described as above. To be noted: VK2/E6E7, with tiRNA^HisGTG inhibitor. As to the method:
as §7, §8

For data set [12], the system named is End1/E6E7 cells. Put plainly: tiRNA expression by real-time PCR. To be noted: End1/E6E7, inhibitor 40 nM transfected. The procedure:
(§9) To confirm the expression of tiRNA (tRNA-derived stress-induced RNAs) associated with the development of endometriosis, the inventors conducted real-time PCR.
(§10) First, information on candidate tiRNA sequences and mature tRNA sources was obtained from MINTbase (https://cm.jefferson.edu/MINTbase/). miRNA CDNA synthesis was performed using a cDNA kit (Agilent Technologies) to confirm tiRNA expression, with U6 snRNA used for normalization. For transfection of the tiRNA^His GTG inhibitor (5′-AACCGAGAGUACUAACCACUAUACGAUCACCGC-3′) (40 nM), Lipofectamine 2000 was used in Opti-MEM.
For orientation: Quantitative PCR measures a nucleic acid by following its amplification.

Data set [13] deals with VK2/E6E7 cells. Put plainly: tiRNA expression by real-time PCR. To be noted: VK2/E6E7, inhibitor 40 nM transfected. The procedure: as §9, §10

For `CC(=O)N[C@@H](CS)C(=O)O` [NAC, N-acetylcysteine, reference compound], the “fraxetin-induced increase of ROS generation under co-treatment” value in the data set on End1/E6E7 cells [1] (End1/E6E7, 2 mM NAC) is “mitigated”; in the data set on VK2/E6E7 cells [2] (VK2/E6E7, 2 mM NAC), “mitigated”.
`N#CC(=C(/N)Sc1ccccc1N)/C(C#N)=C(\N)Sc1ccccc1N` [U0126]: in the data set on End1/E6E7 cells [3] (End1/E6E7, inhibitor 20 μM), the “S6 phosphorylation, combined with fraxetin compared to fraxetin alone” value is “further downregulated”. The “cell viability, combined treatment with fraxetin compared to inhibitor alone” value in the data set on End1/E6E7 cells [4] and in the data set with VK2/E6E7 cells [5] was “marked decrease” in each case.
On to `C[C@]12CCC3=C4CCC(=O)C=C4CC[C@H]3[C@@H]1CC[C@@]2(O)CC#N` [dienogest, reference compound], for which the “relative ROS generation” value is listed as “did not show significant changes” with End1/E6E7 cells [1] (End1/E6E7, Example 7 comparison fraxetin vs dienogest) and “did not show significant changes” in the data set on VK2/E6E7 cells [2] (VK2/E6E7, Example 7 comparison fraxetin vs dienogest).
`COC[C@H]1OC(=O)c2coc3c2[C@@]1(C)C1=C(C3=O)[C@@H]2CCC(=O)[C@@]2(C)C[C@H]1OC(C)=O` [wortmannin, reference compound]: in the data set with End1/E6E7 cells [3] (End1/E6E7, wortmannin 1 μM), the JNK phosphorylation result is recorded as “no significant effect”.
As to “tiRNA^HisGTG inhibitor: tiRNA^His GTG inhibitor (5′-AACCGAGAGUACUAACCACUAUACGAUCACCGC-3′), 40 nM, transfected with Lipofectamine 2000 (AACCGAGAGUACUAACCACUAUACGAUCACCGC; chemistry not given here) [reference compound]”, the “cell proliferation, sequential treatment with fraxetin” value with End1/E6E7 cells [6] and in the data set on VK2/E6E7 cells [7] was “decreased” each time. The “fraxetin-induced MMP loss” value in the data set on End1/E6E7 cells [8] and in the data set with VK2/E6E7 cells [9] was “significantly mitigated” in each case. Moreover, the fraxetin-induced apoptosis entry in the data set with End1/E6E7 cells [10] and with VK2/E6E7 cells [11] was “inhibited” throughout. In addition, the “tiRNA^HisGTG mRNA expression” value with End1/E6E7 cells [12] and with VK2/E6E7 cells [13] was “decreased” each time.
